# In US10017507B2, “Diaza-benzofluoranthrene compounds” (HARBIN PHARMACEUTICAL GROUP CO., LTD. GENERAL …, priority 2015, dated 2018):
# Key:
# [1] = Comparison of pharmacokinetics in Beagle dogs; type: in vivo; settings: for clearance / half-life / bioavailability: male, dog, plasma; for half-life: read-out: Half-life period (converted)
# Protocol: Test 2: Comparison of Pharmacokinetics in Beagle Dogs
# In this study, male Beagle dogs were given the compounds of the examples and vinpocetine (as a control compound) by intravenous injection or oral administration, respectively, then the drug concentration in plasma at different time points was determined by the LC/MS/MS method, so as to investigate the pharmacokinetic characteristics of the two test drugs in Beagle dogs.
# Eight healthy adult Beagle dogs with a weight of 7.0 to 10.83 kg (purchased from Beijing Marshall Biotechnology Co., Ltd.) were selected. The formulation for intravenous injection group was DMSO: PEG400: water=5:20:75. A solvent was added to the test compound which had been accurately weighed, after vortex oscillation and ultrasound, a clear solution with a final concentration of 1.0 mg/mL was obtained. The solution was filtered with a filter membrane of 0.22 μm and stored at room temperature for use. The formulation for oral administration group was PEG 400: Tween 80: H2O=40:10:50. A solvent was added to the test compound which had been accurately weighed, after vortex oscillation and ultrasound, a clear solution with a final concentration of 1.5 mg/mL was obtained. The formulations for both the intravenous injection and the oral administration were formulated on the day of administration. The intravenous dose was 1.0 mg/kg, and the oral dose was 3.0 mg/kg. The whole blood for each test compound was respectively taken at 0.083 (for intravenous injection only), 0.25, 0.5, 1, 2, 4, 6, 8 and 24 hours after administration. The whole blood was centrifuged (3000 g, 15 min, 4° C.) to obtain the plasma. The drug concentration in each plasma sample was determined by LC/MS/MS method. The data about drug concentration in plasma was processed by WinNonlin™ Version 6.3 (Pharsight, Mountain View, Calif.) software, using a non-compartmental model, and the pharmacokinetic parameters were calculated by using the linear-logarithmic trapezoidal method.
# PDE1A = biological target: T1, PDE1A (Homo sapiens, UniProt P54750); experiment: In vitro detection of phosphodiesterase (PDE): PDE1A enzyme activity by fluorescence polarization immunoassay; type: biochemical; settings: human-derived enzyme, cAMP or cGMP substrate; read-out: IC50s for PDE1
# T1 construct: purchased SignalChem
# In short: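 Human PDE1A (enzyme solution 3 pM) was preincubated 10 min at RT with compound in 10 mM Tris-HCl pH 7.5, 5 mM MgCl2, 0.01% Brij 35, 1 mM DTT, 1% DMSO, with Ca2+-calmodulin cofactor. Reaction ran 1 h at RT on […] cAMP or cGMP, then 90 min with antibody/tracer. FP at Ex/Em 620/688 was converted to AMP/GMP via standard curve to give IC50.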
# [2] = tested on: pentylenetetrazole-kindling model of epilepsy; experiment: Inhibition effect on pentylenetetrazole-kindling model of epilepsy in cynomolgus monkey; type: in vivo; settings: 10 mg/kg; for latency prolonged than the Vehicle group / latency, relative increase versus Vehicle group / lasting time of convulsions shortened compared with the Vehicle Group / lasting time of convulsions, relative reduction versus Vehicle Group / times of clonic and tonic convulsion reduced compared with the Vehicle Group / times of clonic and tonic convulsion, relative reduction versus Vehicle Group: versus Vehicle group; for latency for the onset of epilepsy seizure: continuous administration of 8 days, pentylenetetrazole 40 mg/kg s.c.; for latency for the onset of epilepsy seizure / lasting time of clonic convulsions and tonic convulsions / times of clonic convulsion and tonic convulsion: Mean±SEM; for lasting time of clonic convulsions and tonic convulsions: pentylenetetrazole-kindled; for times of clonic convulsion and tonic convulsion: within 24 hours after pentylenetetrazol
# Text: Test 3: Inhibition Effect on Pentylenetetrazole-Kindling Model of Epilepsy in Cynomolgus Monkey In this test, six male cynomolgus monkeys were selected, and each monkey was intragastrically administrated by nasal feeding. Besides pentylenetetrazole which was administrated by subcutaneous injection, the compound of Example 29 and carbamazepine were consecutively administered for 8 days, respectively. The monkeys were respectively given a solvent prior to the first administration, and were injected subcutaneously with pentylenetetrazole immediately after the last administration. The administration interval between two tests was about 10 days. Pentylenetetrazine was administered once to induce epilepsy prior to the first administration of the compound of Example 29. The dosage was calculated according to the latest weight of the animal, and the date of first administration was designated as Day 1. Surgical procedure: the animals were fed adaptively for at least one week in feeding facilities, and then they were anesthetized during preoperative preparation according to the company standards. The main operation procedures were as follows: cutting the head skin, fully exposing the skull, stripping the periosteum, and cleaning the skull surface with a dry absorbent cotton; drilling 2 holes on the skull of the cynomolgus monkey with cranial drill, implanting a brain electrode, and fixing it with dental cement; then burying two myoelectric electrodes into the neck muscles of the cynomolgus monkey, and burying eye-electric electrodes into the bilateral eye muscles, fixing the implant body in the abdominal muscle layer. Postoperative care was performed according to the company standards. The raw data was collected by Ponemah of DSI system, and analyzed and revised by Neuronscore. The data was shown by mean±standard error (Mean±SEM), statistical analysis was performed by t-test and ANOVA. P<0.05 indicated a significant difference, P<0.01 indicated a very significant difference, P<0.001 indicated an extremely significant difference. The characteristics of electroencephalic response and electroencephalic energy for pentylenetetrazole-kindling epilepsy were observed and analyzed, and then a comparison was made between Example 29 and carbamazepine in terms of the latency for the onset of epilepsy seizure, and the times and lasting time of clonic convulsions and tonic convulsions in cynomolgus monkey pentylenetetrazole-kindling model, so as to compare the pharmacodynamic inhibitory effect of Example 29 and carbamazepine on cynomolgus monkey pentylenetetrazole-kindling model. After the cynomolgus monkeys were injected subcutaneously with 40 mg/kg pentylenetetole on the back and were induced epilepsy-like behaviors, the electroencephalic response, electromyogrphic response and locomotor activity were detected by DSI wireless remote sensing signal recording system. […] The behaviors were divided into paroxysmal activity, clonic convulsion and tonic convulsions according to the status of epilepsy. The changes of electroencephalic energy within 4-24 Hz were statistically analyzed when cynomolgus monkeys suffered epileptic seizure within 24 hours after injection of pentylenetetrazole.
compound,measurement,setting,value
"CC[C@@]12C=C(c3nc(C)no3)n3c4c(c5ccccc53)CCN(CCC1)[C@H]42 [Example 29, 5-((4^1S,13aS)-13a-ethyl-2,3,4^1,5,6,13a-hexahydro-1H-indolo[3,2,1-de]pyrido[3,2,1-ij][1,5]naphthyridin-12-yl)-3-methyl-1,2,4-oxadiazole]",area under the concentration-time curve (0-inf),[1]; intravenous injection 1 mg/kg,4.04 µM·h
same,clearance,[1]; intravenous injection 1 mg/kg,12 mL/min/kg
same,half-life,[1]; intravenous injection 1 mg/kg,9.42 h
same,bioavailability,[1]; oral administration 3 mg/kg,37.5%
same,Peak concentration,[1]; oral administration 3 mg/kg,1299 nM
same,Time to Peak,[1]; oral administration 3 mg/kg,1.0 h
same,area under the concentration-time curve (0-inf),[1]; oral administration 3 mg/kg,4.545 µM·h
same,half-life longer than that of vinpocetine,[1]; relative to vinpocetine,56%
same,plasma clearance lower than that of vinpocetine,[1]; relative to vinpocetine,about 85%
same,IC50,PDE1A,1 to 20 µM
same,latency prolonged than the Vehicle group,[2]; 8 days,39.24 min
same,"latency, relative increase versus Vehicle group",[2]; 8 days,160%
same,latency prolonged than the carbamazepine group,"[2]; 8 days, versus carbamazepine group",18.9 min
same,latency for the onset of epilepsy seizure,[2],64.10 ± 13.21 min
same,lasting time of clonic convulsions and tonic convulsions,[2],2.61 ± 0.99 min
same,lasting time of convulsions shortened compared with the Vehicle Group,[2],9.07 min
same,"lasting time of convulsions, relative reduction versus Vehicle Group",[2],78%
same,lasting time of convulsions shortened compared with the carbamazepine group,[2]; versus carbamazepine group,about 2.1 min
same,times of clonic convulsion and tonic convulsion,[2],25.7±7.07
same,times of clonic and tonic convulsion reduced compared with the Vehicle Group,[2]; within 24 hours,about 82 times
same,"times of clonic and tonic convulsion, relative reduction versus Vehicle Group",[2]; within 24 hours,76%
same,times of clonic and tonic convulsion reduced compared with the carbamazepine group,"[2]; within 24 hours, versus carbamazepine group",about 14 times
"CC[C@@]12C=C(c3nc(C)no3)n3c4c(c5c(S(=O)(=O)NC)cccc53)CCN(CCC1)[C@H]42 [Example 82, (4^1S,13aS)-13a-ethyl-N-methyl-12-(3-methyl-1,2,4-oxadiazol-5-yl)-2,3,4^1,5,6,13a-hexahydro-1H-indolo[3,2,1-de]pyrido[3,2,1-ij][1,5]naphthyridin-7-sulfonamide]",IC50,PDE1A,20 to 100 µM
"CC[C@@]12C=C(c3nc(C)no3)n3c4c(c5c(S(=O)(=O)N(C)C)cccc53)CCN(CCC1)[C@H]42 [Example 83, (4^1S,13aS)-13a-ethyl-N,N-dimethyl-12-(3-methyl-1,2,4-oxadiazol-5-yl)-2,3,4^1,5,6,13a-hexahydro-1H-indolo[3,2,1-de]pyrido[3,2,1-ij][1,5]naphthyridin-7-sulfonamide]",IC50,PDE1A,20 to 100 µM
"CCOC(=O)C1=C[C@]2(CC)CCCN3CCc4c(n1c1ccccc41)[C@@H]32 [Vinpocetine, reference compound]",area under the concentration-time curve (0-inf),[1]; intravenous injection 1 mg/kg,0.588 µM·h
same,clearance,[1]; intravenous injection 1 mg/kg,80.5 mL/min/kg
same,half-life,[1]; intravenous injection 1 mg/kg,6.03 h
same,bioavailability,[1]; oral administration 3 mg/kg,12.3%
same,Peak concentration,[1]; oral administration 3 mg/kg,142 nM
same,Time to Peak,[1]; oral administration 3 mg/kg,0.5 h
same,area under the concentration-time curve (0-inf),[1]; oral administration 3 mg/kg,0.216 µM·h
"NC(=O)N1c2ccccc2C=Cc2ccccc21 [carbamazepine, reference compound]",latency prolonged than the Vehicle group,[2]; 8 days,20.34 min
same,"latency, relative increase versus Vehicle group",[2]; 8 days,81%
same,latency for the onset of epilepsy seizure,[2],45.20 ± 9.11 min
same,lasting time of clonic convulsions and tonic convulsions,[2],4.71 ± 2.35 min
same,lasting time of convulsions shortened compared with the Vehicle Group,[2],6.97 min
same,"lasting time of convulsions, relative reduction versus Vehicle Group",[2],60%
same,times of clonic convulsion and tonic convulsion,[2],39.20±14.92
same,times of clonic and tonic convulsion reduced compared with the Vehicle Group,[2]; within 24 hours,about 68 times
same,"times of clonic and tonic convulsion, relative reduction versus Vehicle Group",[2]; within 24 hours,63%
"(4^1S,13aS)-13a-ethyl-12-(1-methyl-1H-pyrazol-3-yl)-2,3,4^1,5,6,13a-hexahydro-1H-indolo[3,2,1-de]pyrido[3,2,1-ij][1,5]naphthyridine, and (4^1S,13aS)-13a-ethyl-12-(1-methyl-1H-pyrazol-5-yl)-2,3,4^1,5,6,13a-hexahydro-1H-indolo[3,2,1-de]pyrido[3,2,1-ij][1,5]naphthyridine [Example 46]",IC50,PDE1A,20 to 100 µM
"(4^1S,13aS)-13a-ethyl-N-(3-methoxylpropyl)-12-(3-methyl-1,2,4-oxadiazol-5-yl)-2,3,4,5,6,13a-hexahydro-1H-indolo[3,2,1-de]pyrido[3,2,1-ij][1,5]naphthyridin-7-sulfonamide [Example 84]",IC50,PDE1A,> 100 µM
"(4^1S,13aS)-13a-ethyl-N-(3-methoxylpropyl)-12-(3-methyl-1,2,4-oxadiazol-5-yl)-2,3,4^1,5,6,13a-hexahydro-1H-indolo[3,2,1-de]pyrido[3,2,1-ij][1,5]naphthyridin-8-sulfonamide [Example 81]",IC50,PDE1A,20 to 100 µM
"(4^1S,13aS)-13a-ethyl-N-(3-methoxylpropyl)-12-(3-methyl-1,2,4-oxadiazol-5-yl)-2,3,4^1,5,6,13a-hexahydro-1H-indolo[3,2,1-de]pyrido[3,2,1-ij][1,5]naphthyridin-9-sulfonamide [Example 78]",IC50,PDE1A,20 to 100 µM
"(4^1S,13aS)-13a-ethyl-N-methyl-12-(3-methyl-1,2,4-oxadiazol-5-yl)-2,3,4^1,5,6,13a-hexahydro-1H-indolo[3,2,1-de]pyrido[3,2,1-ij][1,5]naphthyridin-8-sulfonamide [Example 79]",IC50,PDE1A,1 to 20 µM
